In US11448643B2, “Methods to specifically profile protease activity at lymph nodes” (Massachusetts Institute of Technology, priority 2016, dated 2022):
Square brackets hold non-standard residues; d marks the D form. Ends that are not written are not given here. Pip = O=C(O)[C@@H]1CCCCN1

Tests used:
[1] = test system: metalloproteases in the LN; details: mice vaccinated with amph-EGP plus lipo-CpG and boosted; urine collected 3 hours after injection; ELISA; FIG. 6
Description: Mice were injected subcutaneously and urine for analysis was collected 3 h post-administration.
Mice were later boosted to engage both innate and adaptive immunity. Subsequently, mice were administered a LN-targeting pro-diagnostic reagent comprising a LN-specific enzyme susceptible domain (e.g., protease substrate). Cleavage of the pro-diagnostic reagent by metalloproteases in the LN results in production of signature molecules (ligand encoded tags) that are released into the urine of the subject (e.g., mouse). Urine was collected from the mice 3 hours after injection. Reporter signal was quantified by ELISA.

[2] = test system: homogenized lymph nodes from vaccinated mice; test: Ex vivo peptide screen: cleavage of fluorogenic protease substrates by homogenized lymph nodes from vaccinated vs control mice; type: biochemical; details: 58 fluorogenic substrates; 384 well plates; fluorescence over several hours; FIG. 7
Description: Substrate cleavage of 58 peptides was measured. Signal reported is the fold difference in cleavage between vaccinated mice and PBS-injected mice.
Mice were vaccinated in the same manner as described above. Lymph nodes from vaccinated or non-vaccinated mice were harvested. The harvested lymph nodes were homogenized and added to the 58 fluorogenic protease substrates (SEQ ID NOs: 2-59) in 384 well plates. Fluorescent signal was monitored over the period of several hours for each substrate in the well plates. Fluorescence of reporter molecules in lymph nodes of vaccinated mice was compared to non-vaccinated mice (injected with PBS) and reported as the fold difference in cleavage of each substrate between vaccinated and control mice. […] The substrate used urinary monitoring experiment described above is referred to as Q7 (PLGVRGK; SEQ ID NO: 76).

| Substance | urinary reporter signal in vaccinated mice compared to PBS-injected mice [1] | rank of substrate cleavage (fold difference vaccinated vs control mice) [2] |
| --- | --- | --- |
| Albumin-GPLGVRGKGK(Biotin)eGvndneeGffsarK(FAM) [Albumin-B7] | significantly increased | – |
| GGVPRG (also: fluorogenic labels) [PQ12] | – | two highest cleaved substrates |
| f(Pip)KSGGG ([dF][Pip]KSGGG; also: fluorogenic labels) [Q10, fluorogenic protease substrate, f is D-Phe, Pip is pipecolic acid] | – | two highest cleaved substrates |
